# Values quoted from earlier work in patent US7432093B2, “Soluble, functional apoptotic protease-activating factor 1 fragments” (The Trustees of Princeton University, priority 2004, dated 2008).
# Target: T1, Apaf-1 (Homo sapiens, UniProt O14727)
# T1 sequence (O14727 1-1248): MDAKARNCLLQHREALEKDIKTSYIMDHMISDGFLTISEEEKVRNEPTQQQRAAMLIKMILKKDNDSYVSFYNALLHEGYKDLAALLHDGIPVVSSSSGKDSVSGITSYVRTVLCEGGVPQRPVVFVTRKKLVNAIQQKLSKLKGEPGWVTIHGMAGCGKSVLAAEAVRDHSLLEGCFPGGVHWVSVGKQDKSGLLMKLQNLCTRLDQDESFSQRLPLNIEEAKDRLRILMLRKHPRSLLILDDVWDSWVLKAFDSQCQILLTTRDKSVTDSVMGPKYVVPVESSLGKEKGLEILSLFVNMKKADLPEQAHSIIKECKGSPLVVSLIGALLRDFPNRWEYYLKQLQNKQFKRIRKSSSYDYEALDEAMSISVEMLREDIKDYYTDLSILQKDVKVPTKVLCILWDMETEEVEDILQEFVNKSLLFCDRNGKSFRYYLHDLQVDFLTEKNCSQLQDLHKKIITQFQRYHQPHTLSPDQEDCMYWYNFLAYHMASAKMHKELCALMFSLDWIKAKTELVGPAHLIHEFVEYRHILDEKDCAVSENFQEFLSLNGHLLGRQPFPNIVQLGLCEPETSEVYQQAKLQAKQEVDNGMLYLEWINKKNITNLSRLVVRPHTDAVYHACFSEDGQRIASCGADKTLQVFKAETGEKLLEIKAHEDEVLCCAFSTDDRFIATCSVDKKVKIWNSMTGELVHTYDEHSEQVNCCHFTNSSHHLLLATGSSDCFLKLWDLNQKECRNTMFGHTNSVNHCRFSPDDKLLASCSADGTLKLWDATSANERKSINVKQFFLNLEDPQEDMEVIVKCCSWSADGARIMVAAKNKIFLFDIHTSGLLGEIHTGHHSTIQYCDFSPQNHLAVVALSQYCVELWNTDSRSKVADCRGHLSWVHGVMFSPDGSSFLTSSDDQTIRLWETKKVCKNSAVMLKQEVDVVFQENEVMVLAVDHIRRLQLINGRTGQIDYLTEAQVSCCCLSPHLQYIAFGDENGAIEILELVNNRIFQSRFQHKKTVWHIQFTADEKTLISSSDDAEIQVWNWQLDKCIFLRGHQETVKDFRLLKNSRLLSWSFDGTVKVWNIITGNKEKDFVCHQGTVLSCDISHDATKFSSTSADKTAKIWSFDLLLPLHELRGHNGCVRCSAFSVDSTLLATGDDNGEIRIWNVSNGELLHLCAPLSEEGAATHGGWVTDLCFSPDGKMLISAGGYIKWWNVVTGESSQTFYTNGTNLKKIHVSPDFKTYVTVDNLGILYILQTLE
# Settings: observed by others, explained by the structure; cited from earlier work
structure (smiles),measurement,value
Nc1nc2c(ncn2[C@@H]2O[C@H](COP(=O)(O)OP(=O)(O)OP(=O)(O)O)[C@@H](O)[C@H]2O)c(=O)[nH]1 [GTP],activation of Apaf-1,does not activate Apaf-1
